Reference: patent publication US6066642A, “Dihydropyridine-, pyridine-, benzopyran-4-one- and triazoloquinazoline derivative, their preparation and their use as adenosine receptor antagonists” (priority 1998, dated 2000)
Where two headings read alike, the source gives them in different places.

Columns and labels:
A1 receptors = target: T1, A1 receptors (Rattus norvegicus, UniProt P25099); assay: biochemical; type: binding; conditions: for inhibition at 100 µM: 10^-4 M; for Ki: rat brain membranes, read-out: Ki rA1; for greater affinity to A1 than A2a adenosine receptors: selectivity in words
T1 sequence (P25099 1-326): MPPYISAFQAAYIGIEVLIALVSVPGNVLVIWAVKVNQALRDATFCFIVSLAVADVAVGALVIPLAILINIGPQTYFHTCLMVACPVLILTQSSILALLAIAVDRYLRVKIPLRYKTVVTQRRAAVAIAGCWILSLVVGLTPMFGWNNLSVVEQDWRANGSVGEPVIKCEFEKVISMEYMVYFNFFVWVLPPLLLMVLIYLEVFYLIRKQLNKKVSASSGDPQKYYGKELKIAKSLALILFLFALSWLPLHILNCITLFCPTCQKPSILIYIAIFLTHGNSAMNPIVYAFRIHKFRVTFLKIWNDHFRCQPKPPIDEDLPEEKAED
Experimental: ^a Displacement of specific [^3 H] PIA binding in rat brain
percentage of specific binding displaced at 100 μM.

A2a receptors = target: T2, A2a receptors (Rattus norvegicus, UniProt P30543); assay: radioligand binding, displacement of specific [3H]CGS 21680 binding in rat striatal membranes; conditions: for Ki: [3H]CGS 21680, rat striatal membranes; for inhibition at 100 µM: 10^-4 M
T2 construct: Displacement of specific [^3 H]; from tissue; host or cells: rat striatal membranes
Experimental: ^b Displacement of specific [^3 H]
or as a percentage of specific binding displaced at 100 μM.

[1] = Table 12, read-out: % inhibition rA1
[2] = Table 12, read-out: displacement of specific binding rA2A
[3] = Table 12, read-out: % inhibition rA2A
[4] = Table 12, read-out: displacement of specific binding rA1
[5] = Table 11, read-out: % inhibition rA2A
[6] = Table 11, read-out: displacement of specific binding rA2A

T2 sequence (P30543 whole entry): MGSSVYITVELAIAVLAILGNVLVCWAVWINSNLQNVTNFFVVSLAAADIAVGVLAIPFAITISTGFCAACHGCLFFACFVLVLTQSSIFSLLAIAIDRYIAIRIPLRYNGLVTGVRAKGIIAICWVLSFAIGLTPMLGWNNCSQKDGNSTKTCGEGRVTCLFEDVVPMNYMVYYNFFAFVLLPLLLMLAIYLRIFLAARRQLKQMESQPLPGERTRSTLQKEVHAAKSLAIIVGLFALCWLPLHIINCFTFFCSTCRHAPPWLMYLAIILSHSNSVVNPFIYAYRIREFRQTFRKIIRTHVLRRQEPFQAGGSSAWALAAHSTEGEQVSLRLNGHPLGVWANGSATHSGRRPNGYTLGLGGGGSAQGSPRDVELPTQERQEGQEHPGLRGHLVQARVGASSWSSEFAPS

With CCOC(=O)C1=C(C)NC(C)=C(C(=O)OC)C1c1ccc([N+](=O)[O-])cc1 (racemic) [Compound 67, 3-methyl-5-ethyl-2,6-dimethyl-4-(4-nitrophenyl)-1,4(R,S)-dihydropyridine-3,5-dicarboxylate] the inhibition at 100 µM (A1 receptors; Table 9, read-out: % of specific binding displaced rA1) was 37 ± 14% and the Ki (A2a receptors; Table 9, read-out: Ki rA2A) was 35.6 µM.
CCOC(=O)C1=C(C)NC(c2ccccc2)=C(C(=O)OCC)C1C#Cc1cccc(C)c1 (racemic) [Compound 120, 3,5-Diethyl 2-methyl-4-(3-methylphenylethynyl)-6-phenyl-1,4-(±)-dihydropyridine-3,5-dicarboxylate] was tested, and the inhibition at 100 µM (A1 receptors; [1]) was 41% and the inhibition at 100 µM (A2a receptors; [2]) was < 10%.
CCOC(=O)C1=C(C)NC(c2ccccc2)=C(C(=O)OCc2ccccc2C)C1C#Cc1ccccc1 (racemic) [Compound 122a] was tested, and the inhibition at 100 µM (A1 receptors; [1]) was 16 ± 1% and the inhibition at 100 µM (A2a receptors; [3]) was 13%.
CCOC(=O)C1=C(C)NC(c2ccccc2)=C(C(=O)OCc2cccc(C)c2)C1C#Cc1ccccc1 (racemic) [Compound 122b, 3-Ethyl 5-(3-methylbenzyl)-4-phenylethynyl-6-phenyl-1,4(±)-dihydropyridine-3.5-dicarboxylate] was tested, and the inhibition at 100 µM (A1 receptors; [4]) was < 10% and the inhibition at 100 µM (A2a receptors; [3]) was 16 ± 2%.
For CCOC(=O)C1=C(C)NC(c2ccccc2)=C(C(=O)OCc2ccc(C)cc2)C1C#Cc1ccccc1 (racemic) [Compound 122c], the inhibition at 100 µM (A1 receptors; [4]) was < 10% and the inhibition at 100 µM (A2a receptors; [3]) was 17 ± 3%.
For CCOC(=O)C1=C(C)NC(c2ccccc2)=C(C(=O)OCc2ccc(C(F)(F)F)cc2)C1C#Cc1ccccc1 (racemic) [Compound 122d], the inhibition at 100 µM (A1 receptors; [1]) was 32 ± 3% and the inhibition at 100 µM (A2a receptors; [3]) was 15%.
CCOC(=O)C1=C(C)NC(c2ccccc2)=C(C(=O)OCc2cccc([N+](=O)[O-])c2)C1C#Cc1ccccc1 (racemic) [Compound 122f, 3-Ethyl 5-(3-nitrobenzyl)-4-phenylethynyl-6-phenyl-1,4(±)-dihydropyridine-3,5-dicarboxylate] was tested, and the inhibition at 100 µM (A1 receptors; [1]) was 28 ± 2% and the inhibition at 100 µM (A2a receptors; [2]) was < 10%.
Molecule CCOC(=O)C1=C(C)NC(c2ccccc2)=C(C(=O)OCc2ccc([N+](=O)[O-])cc2)C1C#Cc1ccccc1 (racemic) [Compound 122g] has an inhibition at 100 µM (A1 receptors; [1]) of 29 ± 2%.
CCCOC(=O)C1=C(C)NC(c2ccccc2)=C(C(=O)OCc2ccccc2)C1C#Cc1ccccc1 (racemic) [Compound 124, 3-Propyl 5-benzyl 2-methyl-4-phenylethynyl-6-phenyl-1,4-(±)-dihydropyridine-3,5-dicarboxylate] gave an inhibition at 100 µM (A1 receptors; [1]) of 27 ± 7% and an inhibition at 100 µM (A2a receptors; [3]) of 16%.
With CCOC(=O)C1=C(C)NC(c2ccccc2)=C(C(=O)OCCc2ccccc2)C1C#Cc1ccccc1 (racemic) [Compound 125, 3-Ethyl 5-phenylethyl 2-methyl-4-phenylethynyl-6-phenyl-1,4-(±)-dihydropyridine-3.5-dicarboxylate] the inhibition at 100 µM (A1 receptors; [4]) was < 10% and the inhibition at 100 µM (A2a receptors; [2]) was < 10%.
In the case of CCOC(=O)C1=C(C)NC(c2ccccc2)=C(C(=O)OCCCc2ccccc2)C1C#Cc1ccccc1 (racemic) [Compound 126, 3-Ethyl 5-phenylpropyl 2-methyl-4-phenylethynyl-6-phenyl-1,4-(±)-dihydropyridine-3,5-dicarboxylate], the inhibition at 100 µM (A1 receptors; [4]) is reported as < 10% and the inhibition at 100 µM (A2a receptors; [2]) is reported as < 10%.
For CCOC(=O)C1=C(C)NC(c2ccccc2)=C(C(=O)OC(C)(C)C)C1C#Cc1ccccc1 (racemic) [Compound 127, 3-Ethyl 5-t-butyl 2-methyl-4-phenylethynyl-6-phenyl-1,4-(±)-dihydropyridine-3.5-dicarboxylate], the Ki (A1 receptors; Table 12, [3H]R-PIA) was 25.3 µM and the inhibition at 100 µM (A2a receptors; [3]) was 27 ± 5%.
In the case of CCOC(=O)C1=C(C)N(COC)C(c2ccccc2)=C(C(=O)OCC[Si](C)(C)C)C1C#Cc1ccccc1 (racemic) [Compound 137, 1-Methoxymethyl 3-ethyl 5-(2-trimethylsilyl)-ethyl 2-methyl-4-phenylethynyl-6-phenyl-1,4-(±)-dihydropyridine-3,5-dicarboxylate], the inhibition at 100 µM (A1 receptors; [4]) is reported as < 10% and the inhibition at 100 µM (A2a receptors; [3]) is reported as 27 ± 4%.
Work on O=C1CC(c2ccccc2)Oc2ccccc21 (stereo not shown) [Compound 12, flavanone, reference compound] yielded a Ki (A1 receptors; Table 4, [3H]PIA) of 32 ± 4.8 µM.
For COC(=O)C1=C(C)NC(C)=C([N+](=O)[O-])C1c1ccccc1C(F)(F)F (stereo not shown) [Compound 69, reference compound], the “greater affinity to A1 than A2a adenosine receptors” value (A1 receptors) was “greater affinity to A1 adenosine receptors than A2a receptors”.
With COC(=O)C1=C(C)NC(C)=C([N+](=O)[O-])C1c1ccccc1C(F)(F)F (stereo not shown) [Compound 70, reference compound] the “greater affinity to A1 than A2a adenosine receptors” value (A1 receptors) was “greater affinity to A1 adenosine receptors than A2a receptors”.
CCOC(=O)c1c(C)nc(-c2ccccc2)c(C(=O)OCC)c1C [Compound 81] was tested, and the Ki (A2a receptors; Table 10, read-out: Ki rA2a) was 28.4 µM.
CCOC(=O)C1=C(C)NC(C)=C(C(=O)OCC)C1/C=C/c1ccccc1 [Compound 84] was tested, and the Ki (A2a receptors; Table 11, read-out: Ki rA2A) was 9.23 ± 3.6 µM.
CCOC(=O)C1=C(C)NC(C)=C(C(=O)OCc2ccccc2)C1/C=C/c1ccccc1 (stereo not shown) [Compound 85] was tested, and the inhibition at 100 µM (A2a receptors; [5]) was 14.4 ± 4%.
For CCOC(=O)C1=C(C)NC(c2ccccc2)=C(C(=O)OCC)C1CC (stereo not shown) [Compound 86], the Ki (A2a receptors; Table 11, read-out: Ki rA2A) was 14.5 µM.
CCOC(=O)C1=C(C)NC(c2ccccc2)=C(C(=O)OCc2ccccc2)C1C (stereo not shown) [Compound 87] gave a Ki (A2a receptors; Table 11, read-out: Ki rA2A) of 3.15 µM.
CCOC(=O)C1=C(C)NC(c2ccc(C)cc2)=C(C(=O)OCC)C1/C=C/c1ccccc1 (stereo not shown) [Compound 88] gave an inhibition at 100 µM (A2a receptors; [5]) of 37%.
With CCOC(=O)C1=C(C)NC(c2ccc(OC)cc2)=C(C(=O)OCC)C1/C=C/c1ccccc1 (stereo not shown) [Compound 89] the inhibition at 100 µM (A2a receptors; [6]) was < 10%.
Work on CCOC(=O)C1=C(C)NC(c2ccc(Cl)cc2)=C(C(=O)OCC)C1/C=C/c1ccccc1 (stereo not shown) [Compound 90] yielded an inhibition at 100 µM (A2a receptors; [5]) of 12 ± 7%.
Molecule CCOC(=O)C1=C(C)NC(c2ccoc2)=C(C(=O)OCC)C1/C=C/c1ccccc1 (stereo not shown) [Compound 92] has an inhibition at 100 µM (A2a receptors; [5]) of 35 ± 6%.
CCOC(=O)C1=C(C)NC(c2ccsc2)=C(C(=O)OCC)C1/C=C/c1ccccc1 (stereo not shown) [Compound 93] was tested, and the inhibition at 100 µM (A2a receptors; [6]) was < 10%.
CCOC(=O)C1=C(C)NC(c2ccccc2)=C(C(=O)OCC)C1/C=C/c1ccccc1OC (stereo not shown) [Compound 94] showed an inhibition at 100 µM (A2a receptors; [5]) of 17 ± 12%.
With CCOC(=O)C1=C(C)NC(c2ccccc2)=C(C(=O)OCC)C1/C=C/c1ccccc1[N+](=O)[O-] (stereo not shown) [Compound 95] the inhibition at 100 µM (A2a receptors; [6]) was < 10%.
Work on CCOC(=O)C1=C(C)NC(c2ccccc2)=C(C(=O)OCC)C1C=C(c1ccccc1)c1ccccc1 (stereo not shown) [Compound 97] yielded a Ki (A2a receptors; Table 11, read-out: Ki rA2A) of 8 µM.
CCOC(=O)C1=C(C)NC(c2ccccc2)=C(C(=O)OCC)C1C#Cc1ccccc1 (stereo not shown) [Compound 109] showed an inhibition at 100 µM (A2a receptors; [3]) of 25 ± 3%.
With CCOC(=O)C1=C(C)NC(c2ccccc2)=C(C(=O)OCC)C1c1ccco1 (stereo not shown) [Compound 115] the inhibition at 100 µM (A2a receptors; [2]) was < 10%.
CCOC(=O)C1=C(C)NC(c2ccccc2)=C(C(=O)OCc2ccccc2)C1C#Cc1ccccc1 (stereo not shown) [Compound 121] was tested, and the inhibition at 100 µM (A1 receptors; [1]) was 25 ± 4%.
For CCOC(=O)C1=C(c2ccccc2)NC(C)=C(C(=O)SCC)C1C#Cc1ccccc1 (stereo not shown) [Compound 130b], the Ki (A2a receptors; Table 12, read-out: Ki rA2A) was 5.15 ± 1.83 µM.
Work on CCNC(=O)C1=C(c2ccccc2)N(COCC)C(C)=C(C(=O)OCC)C1C#Cc1ccccc1 (stereo not shown) [Compound 140] yielded an inhibition at 100 µM (A2a receptors; [3]) of 35%.
CCCn1c(=O)n2nc(-c3ccco3)nc2c2cc(Cl)ccc21 [Compound 159, 9-Chloro-2-(2-furyl)[1,2,4]triazolo[1,5-c]quinazolin-6-propyl-5-one] was tested, and the Ki (A1 receptors; Table 15, [3H]PIA) was 2 µM.
CCOC(=O)C1=C(c2ccccc2)NC(C)=C(C(=O)OCC(O)CO)C1C#Cc1ccccc1 (stereo not shown) [Compound 212a] was tested, and the inhibition at 100 µM (A2a receptors; Table 14, read-out: displacement of specific binding rA2A) was < 10%.
With CCOC(=O)C1=C(c2ccccc2)NC(C)=C(C(=O)OCC(O)CO)C1C#Cc1ccccc1 (stereo not shown) [Compound 213a] the inhibition at 100 µM (A2a receptors; Table 14, read-out: % inhibition rA2A) was 39 ± 8%.
